According to US5091409A (priority 1990, dated 1992):
Structures can show the parent of a compound that is named as a salt. Where two headings read alike, the source gives them in different places.

Key:
carbonic anhydrase = carbonic anhydrase (Homo sapiens, UniProt P00918); test: carbonic anhydrase inhibition (I50) and Ki, methods of Ponticello et al., J. Med. Chem., 30, 591 (1987); assay type: biochemical; details: for IC50: carbonic anhydrase inhibition
intraocular pressure = details: cited from earlier work
[1] = tested on: ocular hypertensive monkey; test: drop in IOP in the ocular hypertensive monkey (Lee et al., Curr. Eye Res., 4,775-781 (1985)); assay type: in vivo; details: 16 hours after treatment
[2] = carbonic anhydrase, main value, read-out: Ki
[3] = value in parentheses, hi = more active component of racemic mixture, read-out: Ki (hi)

Ki (carbonic anhydrase; [2]) [nM] | Ki (carbonic anhydrase; [3]) [nM] | IC50 (carbonic anhydrase) [nM] | Structure (SMILES) | other results
3.6 | 1.8 | – | CC[C@H]1C[C@H](NC)c2cc(S(N)(=O)=O)sc2S1(=O)=O (relative stereo) [Compound 4] | –
7.1 | 2.6 | – | CC[C@@H]1C[C@H](NC)c2cc(S(N)(=O)=O)sc2S1(=O)=O (relative stereo) [Compound 5] | –
2.1 | 0.85 | – | CCC[C@H]1C[C@H](NC)c2cc(S(N)(=O)=O)sc2S1(=O)=O (relative stereo) [Compound 6] | –
2.8 | 0.64 | – | CCC[C@@H]1C[C@H](NC)c2cc(S(N)(=O)=O)sc2S1(=O)=O (relative stereo) [Compound 7] | –
– | – | 0.23 | C=CC[C@H]1C[C@H](NCC)c2cc(S(N)(=O)=O)sc2S1(=O)=O (relative stereo) [Compound 12, trans-6-Allyl-5,6-dihydro-4-ethylamino-4H-thieno[2,3-b]thiopyran-2-sulfonamide-7,7-dioxide hydrochloride] | –
2.6 | 0.13 | – | CCN[C@H]1C[C@@H](CC(C)C)S(=O)(=O)c2sc(S(N)(=O)=O)cc21 (relative stereo) [Compound 14] | –
– | – | – | CC(C)(C)NC[C@H](O)COc1nsnc1N1CCOCC1 [(S)-1-tert-Butylamino[(4-morpholino-1,2,5-thiadiazol-3-yl)oxy]-2-propanol] | local anesthetic properties (intraocular pressure; advantage over many other β-adrenergic blocking agents, background statement): devoid of local anesthetic properties; unwanted side effects (intraocular pressure): devoid of many unwanted side effects associated with pilocarpine
– | – | – | CCC[C@H]1C[C@H](NCC)c2cc(S(N)(=O)=O)sc2S1(=O)=O.Cl [Compound 1, (S,S) (-)5,6-Dihydro-4-ethylamino-6-(n-propyl)-4H-thieno[2,3-b]thiopyran-2-sulfonamide-7,7-dioxide hydrochloride] | drop in IOP [1]: 11.3 mmHg
0.23 | – | 0.15 | CCCN[C@H]1C[C@H](CCC)S(=O)(=O)c2sc(S(N)(=O)=O)cc21 [Compound 3] | –
– | – | – | CCN[C@H]1C[C@H](C)S(=O)(=O)c2sc(S(N)(=O)=O)cc21 [Compound 8] | drop in IOP [1]: 5.6 mmHg
0.3 | – | 0.5 | CCN[C@H]1C[C@H](CC)S(=O)(=O)c2sc(S(N)(=O)=O)cc21 [Compound 10] | –
1 | – | 0.8 | CCN[C@H]1C[C@@H](CC)S(=O)(=O)c2sc(S(N)(=O)=O)cc21 [Compound 11] | –
0.4 | – | 0.21 | C=CC[C@@H]1C[C@H](NCC)c2cc(S(N)(=O)=O)sc2S1(=O)=O [Compound 13, cis-6-Allyl-5,6-dihydro-4H-4-ethylaminothieno[2,3-b]thiopyran-2-sulfonamide-7,7-dioxide hydrochloride] | drop in IOP [1]: 9.8 mmHg
– | – | – | CNC(=O)Oc1ccc2c(c1)[C@]1(C)CCN(C)[C@@H]1N2C [physostigmine] | effect on intraocular pressure (intraocular pressure; background statement): reduce intraocular pressure
– | – | – | CC[C@@H]1C(=O)OC[C@@H]1Cc1cncn1C [pilocarpine] | effect on intraocular pressure (intraocular pressure; background statement): reduce intraocular pressure
